These results are taken from US12129223B2, “Lipids for use in lipid nanoparticle formulations” (Acuitas Therapeutics, Inc., priority 2021, dated 2024).

A short description of series [1]: Determination of pKa of formulated lipids (TNS fluorescence assay in lipid nanoparticles). The class given is physicochemical. Particulars: lipid nanoparticles (compound/DSPC/cholesterol/PEG-lipid), lipid formulated in LNP (lipid/DSPC/cholesterol/PEG-lipid), pH at half-maximal intensity. The method in brief:
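LNPs (compound/DSPC/cholesterol/PEG-lipid, 50/10/38.5/1.5 or 47.5:10:40.7:1.8 mol %) diluted to 24 μM lipid in HEPES/MES/ammonium acetate/NaCl buffers, pH 2.5–11, with 1 μM TNS. Fluorescence read at room temperature, ex 321/em 445 nm. pKa taken as pH of half-maximal intensity from sigmoidal fit.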

The subject of series [2] is luciferase expression in the liver. Kind of series: Luciferase mRNA in vivo evaluation using lipid nanoparticle compositions. On the set-up: species or system mice. Particulars: LNP with FLuc mRNA, tail vein injection, ng luciferase/g liver 4 hours after administration; for Liver Luc @ 0.3 mg/kg: 0.3 mg mRNA/kg; for Liver Luc @ 1.0 mg/kg: 1.0 mg mRNA/kg. The procedure: (§1) A lipid of structure (I), DSPC, cholesterol and PEG-lipid are solubilized in ethanol at a molar ratio of 50:10:38.5:1.5 or 47.5:10:40.7:1.8. Lipid nanoparticles (LNP) are prepared at a total lipid to mRNA weight ratio of approximately 10:1 to 40:1. Briefly, the mRNA is diluted to 0.2 mg/mL in 10 to 50 mM citrate buffer, pH 4 or 10 to 25 mM acetate buffer, pH 4. Syringe pumps are used to mix the ethanolic lipid solution with the mRNA aqueous solution at a ratio of about 1:5 to 1:3 (vol/vol) with total flow rates above 15 mL/min. The ethanol is then removed and the external buffer replaced with PBS by dialysis. Finally, the lipid nanoparticles are filtered through a 0.2 µm pore sterile filter.
Studies are performed in 6-8 week old female C57BL/6 mice (Charles River) 8-10 week old CD-1 (Harlan) mice (Charles River) according to guidelines established by an institutional animal care committee (ACC) and the Canadian Council on Animal Care (CCAC). Varying doses of mRNA-lipid nanoparticle are systemically administered by tail vein injection and animals euthanized at a specific time point (e.g., 4 hours) post-administration. Liver and spleen are collected in pre-weighed tubes, weights determined, immediately snap frozen in liquid nitrogen and stored at −80° C. until processing for analysis.
For liver, approximately 50 mg is dissected for analyses in a 2 mL FastPrep tubes (MP Biomedicals, Solon OH). ¼″ ceramic sphere (MP Biomedicals) is added to each tube and 500 μL of Glo Lysis Buffer—GLB (Promega, Madison WI) equilibrated to room temperature is added to liver tissue. Liver tissues are homogenized with the FastPrep24 instrument (MP Biomedicals) at 2×6.0 m/s for 15 seconds. Homogenate is incubated at room temperature for 5 minutes prior to a 1:4 dilution in GLB and assessed using SteadyGlo Luciferase assay system (Promega). Specifically, 50 μL of diluted tissue homogenate is reacted with 50 μL of SteadyGlo substrate, shaken for 10 seconds followed by 5 minute incubation and then quantitated using a CentroXS^3 LB 960 luminometer (Berthold Technologies, Germany). The amount of protein assayed is determined by using the BCA protein assay kit (Pierce, Rockford, IL). Relative luminescence units (RLU) are then normalized to total μg protein assayed. To convert RLU to ng luciferase a standard curve is generated with QuantiLum Recombinant Luciferase (Promega).
The FLuc mRNA (L-6107) from Trilink Biotechnologies will express a luciferase protein, originally isolated from the firefly, Photinus pyralis. FLuc is commonly used in mammalian cell culture to measure both gene expression and cell viability. It emits bioluminescence in the presence of the substrate, luciferin. This capped and polyadenylated mRNA is fully substituted with 5-methylcytidine and pseudouridine.
(§2) Representative compounds of the disclosure shown in Table 2 were formulated using the following molar ratio: 50% cationic lipid/10% distearoylphosphatidylcholine (DSPC)/38.5% Cholesterol/1.5% PEG lipid 2-[2-(ω-methoxy(polyethyleneglycol2000)ethoxy]-N,N-ditetradecyl acetamide) or 47.5% cationic lipid/10% DSPC/40.7% Cholesterol/1.8% PEG lipid. Relative activity was determined by measuring luciferase expression in the liver 4 hours following administration via tail vein injection as described in Example 1 or by measuring the amount of human IgG in mouse serum as described in example 2. The activity was compared at a dose of 1.0 or 0.5 or 0.3 mg mRNA/kg and expressed as ng luciferase/g liver measured 4 hours after administration, as described in Example 1 or as μg IgG/mL serum measured 24 hours after administration, as described in Example 2. Compound numbers in Table 2 refer to the compound numbers of Table 1.

Another series has as its system human IgG in mouse serum. Kind of series: Immunoglobulin G (IgG) mRNA in vivo evaluation using lipid nanoparticle compositions. On the set-up: species or system mice. The note with it: LNP with IgG mRNA, tail vein injection, serum 24 hours after administration; for Serum IgG @ 0.3 mg/kg: 0.3 mg mRNA/kg; for Serum IgG @ 1.0 mg/kg: 1.0 mg mRNA/kg. Here is the method: as §1
Studies are performed in 6-8 week old CD-1/ICR mice (Envigo) according to guidelines established by an institutional animal care committee (ACC) and the Canadian Council on Animal Care (CCAC). Varying doses of mRNA-lipid nanoparticle are systemically administered by tail vein injection and animals euthanized at a specific time point (e.g., 24 hours) post-administration. The whole blood is collected, and the serum subsequentially separated by centrifuging the tubes of the whole blood at 2000×g for 10 minutes at 4° C. and stored at −80° C. until use for analysis.
For immunoglobulin G (IgG) ELISA (Life Diagnostics Human IgG ELISA kit), the serum samples are diluted at 100 to 15000 folds with 1×diluent solution. 100 μL of diluted serum is dispensed into anti-human IgG coated 96-well plate in duplicate alongside human IgG standards and incubated in a plate shaker at 150 rpm at 25° C. for 45 minutes. The wells are washed 5 times with 1× wash solution using a plate washer (400 μL/well). 100 μL of HRP conjugate is added into each well and incubated in a plate shaker at the same condition above. The wells are washed 5 times again with 1× wash solution using a plate washer (400 μL/well). 100 μL of TMB reagent is added into each well and incubated in a plate shaker at the same condition above. The reaction is stopped by adding 100 μL of Stop solution to each well. The absorbance is read at 450 nm (A450) with a microplate reader. The amount of human IgG in mouse serum is determined by plotting A450 values for the assay standard against human IgG concentration.
as §2

Usually pKa stands for the pH at which an ionisable group is half protonated.

`CCCCCCCCCCN(CCCCCCCCCC)C(=O)CCCCCCCN(CCCCO)CCCCCCCC(=O)N(CCCCCCCCCC)CCCCCCCCCC` [Compound I-23, 8,8′-((4-hydroxybutyl)azanediyl)bis(N,N-didecyloctanamide)] registered a pKa in series [1] of 6.48. In series [2], the “Liver Luc @ 0.3 mg/kg” value is 15876 ± 7588 ng/g and the “Liver Luc @ 1.0 mg/kg” value came to 34202 ± 19178 ng/g. In the series with human IgG in mouse serum, the “Serum IgG @ 0.3 mg/kg” value came out at 43.34 ± 7.70 µg/mL and the “Serum IgG @ 1.0 mg/kg” value is 103.91 ± 31.29 µg/mL.
In turn, `CCCCCCCCCCN(CCCCCCCCCC)C(=O)CCCCCCCN(CCO)CCCCCCCC(=O)N(CCCCCCCCCC)CCCCCCCCCC` [Compound I-22, 8,8′-((2-hydroxyethyl)azanediyl)bis(N,N-didecyloctanamide)] gave a pKa in series [1] of 6.47. In series [2], the “Liver Luc @ 0.3 mg/kg” value was 12829 ± 3326 ng/g and the “Liver Luc @ 1.0 mg/kg” value came to 38933 ± 23162 ng/g. Further, in the series with human IgG in mouse serum, the “Serum IgG @ 0.3 mg/kg” value came to 31.00 ± 9.33 µg/mL and the “Serum IgG @ 1.0 mg/kg” value was 99.12 ± 18.03 µg/mL.
The corresponding values for `CCCCCCCCCCN(CCCCCCCCCC)C(=O)CCCCCCCN(CCCCCO)CCCCCCCC(=O)N(CCCCCCCCCC)CCCCCCCCCC` [Compound I-21, 8,8′-((5-hydroxypentyl)azanediyl)bis(N,N-didecyloctanamide)] are 6.54, 29492 ± 4887 ng/g, 43216 ± 25636 ng/g, 48.78 ± 6.88 µg/mL and 220.38 ± 62.57 µg/mL.
The corresponding values for `CCCCCCCCCCN(CCCCCCCCCC)C(=O)CCCCCCCN(CCCCCCO)CCCCCCCC(=O)N(CCCCCCCCCC)CCCCCCCCCC` [Compound I-24, 8,8′-((6-hydroxyhexyl)azanediyl)bis(N,N-didecyloctanamide)] are 6.24, 9106 ± 1760 ng/g, 38913 ± 14318 ng/g, 27.46 ± 9.22 µg/mL and 112.31 ± 14.51 µg/mL.
